In assay [1] the target is Bcl-xL (Homo sapiens, UniProt Q07817). The assay can be described thus: Bcl-xL binding affinity analysis (fluorescence polarization binding assay). More on the design: scale not given here. An outline of the steps:
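In vitro fluorescence polarization binding assay measuring compound binding to human Bcl-xL.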

For assay [2], the system named is Human Pancreatic Cancer Cell Line Panc1. The assay can be described thus: Cell death assay (propidium iodide/Hoechst) in Panc1 cells with or without camptothecin. It counts as cell-based. The note with it: 72 hours, % cell death by propidium iodide/Hoechst. An outline of the steps: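 Panc1 cells, 10,000/well, exposed 72 h at 37 C to compound (29 uM to 0.13 uM, 0.3% DMSO) with or without 3 uM camptothecin. Propidium iodide and Hoechst staining imaged by fluorescence microscopy; % cell death = PI-stained/Hoechst-stained cells × 100.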

For assay [3], the target named is Bcl-2 (Homo sapiens, UniProt P10415). The experiment in a line: Bcl-2 binding affinity analysis (fluorescence polarization binding assay). The gist of the method: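 Binding to human Bcl-2 quantified in vitro by a fluorescence polarization assay.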
Chain of Bcl-2 (P10415 whole entry): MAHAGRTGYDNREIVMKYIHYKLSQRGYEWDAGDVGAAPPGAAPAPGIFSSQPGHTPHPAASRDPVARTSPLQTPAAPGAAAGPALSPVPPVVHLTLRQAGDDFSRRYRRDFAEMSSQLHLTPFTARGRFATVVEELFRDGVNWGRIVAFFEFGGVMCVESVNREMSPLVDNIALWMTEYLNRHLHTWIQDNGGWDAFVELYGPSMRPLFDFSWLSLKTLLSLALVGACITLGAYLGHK
(In fluorescence polarisation assays a small probe gives low polarisation when free and higher when bound to something large.)

The test system of assay [4] is RL Human Follicular Lymphoma Cell Line. The assay can be described thus: Alamar blue cytotoxicity assay in RL cells. It counts as cell-based. The note with it: 72 h incubation, read-out: Bcl RL Alamar Blue IC50. Here is the method:
When RL-cells are exposed to isoxazolidine compounds of the present invention, the inhibitors show a dose-dependent cell-killing in the Alamar blue cytoxicity assay with IC50 values of from about 100 μM to about 1 μM (See Examples). When Panc1 cells are exposed to the isoxazolidine compounds of the present invention in combination with camptothecin, the inhibitors show a synergistic dose-dependent cell killing in the propidium iodide exclusion cell survival assay with IC50 values of from about 100 μM to about 1 μM (See Examples).
• 1) Using 96 well plates, compounds were serially diluted in DMSO from 9 mM to 4 uM • 2) Assay plates were prepared by diluting samples 310 fold into 150 ul of medium containing 30,000 cells/well resulting in a final DMSO concentration of 0.3% and a concentration range from 29 uM to 0.013 uM for each compound. • 3) Plates were incubated at 37 C and 5% CO2 for 72 h • 4) After 72 h, Alamar blue reagent was added to each well and plates read according to manufacturer's instructions
In vitro cytotoxicity data for RL cells is presented below for various compounds of the invention.
(In general: Alamar Blue is a resazurin reagent that responds to reducing activity.)

Where [5] appears, read: Homo sapiens, PANC-1, without camptothecin, read-out: Panc1 − Cpt IC50.
The mark [6] stands for this setting: with 3 uM Camptothecin, read-out: Panc1 + Cpt IC50.

Like-named read-outs stand apart in the source and are kept apart here. A value given as a limit tells only on which side of the number the result lay.

Chain of Bcl-xL (Q07817 whole entry): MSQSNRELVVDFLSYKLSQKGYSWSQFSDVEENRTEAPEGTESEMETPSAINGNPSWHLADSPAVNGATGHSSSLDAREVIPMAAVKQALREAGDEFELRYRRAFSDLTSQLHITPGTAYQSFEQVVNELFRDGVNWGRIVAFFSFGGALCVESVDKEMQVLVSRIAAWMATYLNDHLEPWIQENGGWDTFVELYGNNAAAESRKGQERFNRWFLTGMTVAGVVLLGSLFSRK

Broadly, the IC50 is the concentration at which inhibition is half-maximal. Broadly, the Ki is the equilibrium dissociation constant of an inhibitor or competing ligand from its target. On to `CC(C)C[C@@H](CN(C)C)N(Cc1cccc(CN2O[C@@H](CO)C([C@H](C)O)[C@H]2C(=O)N[C@H]2C[C@H]3C[C@@H]([C@@H]2C)C3(C)C)c1)Cc1ccccc1O` (stereo partly shown) [Compound 300], for which, in assay [1], the “Bcl-XL binding affinity Ki” value is on record as “♯”. The figures for the half-maximal inhibitory concentration (IC50) in assay [2] (setting [5]), in assay [2] (setting [6]) and in assay [4] (Homo sapiens) were greater than 2500 nM, 1800 to 2500 nM and less than 2000 nM, respectively. This molecule displayed an inhibitory constant (Ki) in assay [3] of less than 800 nM.
In the same order, the values of `COc1ccccc1CN(Cc1cccc(CN2OC(CO)C(C(C)O)C2C(=O)NC2CC3CC(C2C)C3(C)C)c1)C(CC(C)C)CN(C)C` (stereo not shown) [Compound 301] are “♯”, greater than 2500 nM, greater than 2500 nM, less than 2000 nM and less than 800 nM.
In the same order, the values of `CC(C)CC(CN(C)C)N(Cc1cccc(CN2OC(CO)C(C(C)O)C2C(=O)NC2CC3CC(C2C)C3(C)C)c1)Cc1ccccc1Br` (stereo not shown) [Compound 309] are “♯”, greater than 2500 nM, 1300 to 1800 nM, less than 2000 nM and less than 800 nM.
With `CC(C)CC(CN(C)C)N(Cc1ccccc1)Cc1cccc(CN2OC(CO)C(C(C)O)C2C(=O)NC2CC3CC(C2C)C3(C)C)c1` (stereo not shown) [Compound 311], the “Bcl-XL binding affinity Ki” value in assay [1] is on record as “♯”. The IC50 in assay [2] (setting [5]) is greater than 2500 nM; in assay [2] (setting [6]), 1800 to 2500 nM; in assay [4], 2000 to 5000 nM. The same molecule displayed a Ki in assay [3] of less than 800 nM.
As for `CC(C)CC(CN(C)C)N(Cc1cccc(CN2OC(CO)C(C(C)O)C2C(=O)NC2CC3CC(C2C)C3(C)C)c1)Cc1ccccc1F` (stereo not shown) [Compound 312], the “Bcl-XL binding affinity Ki” value in assay [1] is listed as “♯”. Further, the 50% inhibitory concentration (IC50) was greater than 2500 nM in assay [2] (setting [5]), greater than 2500 nM in assay [2] (setting [6]) and less than 2000 nM in assay [4] (Homo sapiens). In assay [3], this molecule displayed a Ki of less than 800 nM.
For the molecule `CC(C)CC(CN(C)C)N(Cc1cccc(CN2OC(CO)C(C(C)O)C2C(=O)NC2CC3CC(C2C)C3(C)C)c1)Cc1ccccc1Cl` (stereo not shown) [Compound 313], in assay [1], the “Bcl-XL binding affinity Ki” value was “♯”. In addition, the IC50 is 1300 to 1800 nM in assay [2] (setting [5]), 1300 to 1800 nM in assay [2] (setting [6]) and less than 2000 nM in assay [4] (Homo sapiens). In assay [3], this molecule returned an inhibition constant Ki of less than 800 nM.
Take `CC(C)CC(CN(C)C)N(Cc1cccc(CN2OC(CO)C(C(C)O)C2C(=O)NC2CC3CC(C2C)C3(C)C)c1)Cc1ccccc1C#N` (stereo not shown) [Compound 314]: in assay [1], the “Bcl-XL binding affinity Ki” value was “♯”. The concentration for half-maximal inhibition (IC50) was greater than 2500 nM in assay [2] (setting [5]), greater than 2500 nM in assay [2] (setting [6]) and less than 2000 nM in assay [4] (Homo sapiens). The Ki in assay [3] was less than 800 nM.
For the molecule `CC(C)CC(CN(C)C)N(Cc1cccc(CN2OC(CO)C(C(C)O)C2C(=O)NC2CC3CC(C2C)C3(C)C)c1)Cc1ccccc1[N+](=O)[O-]` (stereo not shown) [Compound 316], in assay [1], the “Bcl-XL binding affinity Ki” value is listed as “♯”. Besides, the 50% inhibitory concentration (IC50) was greater than 2500 nM in assay [2] (setting [5]), greater than 2500 nM in assay [2] (setting [6]) and greater than 5000 nM in assay [4] (Homo sapiens). In assay [3], the inhibition constant (Ki) is less than 800 nM.
As for `CC(C)CC(CN(C)C)N(Cc1cccc(CN2OC(CO)C(C(C)O)C2C(=O)NC2CC3CC(C2C)C3(C)C)c1)Cc1ccccc1OC(F)(F)F` (stereo not shown) [Compound 320], the “Bcl-XL binding affinity Ki” value in assay [1] was “♯”. In addition, the results for the IC50 in assay [2] (setting [5]), in assay [2] (setting [6]) and in assay [4] (Homo sapiens) were greater than 2500 nM, 1800 to 2500 nM and less than 2000 nM, respectively. The Ki in assay [3] is less than 800 nM.
In the same order, the values of `CC(C)CC(CN(C)C)N(Cc1cccc(CN2OC(CO)C(C(C)O)C2C(=O)NC2CC3CC(C2C)C3(C)C)c1)Cc1ccccc1C(F)(F)F` (stereo not shown) [Compound 321] are “♯”, less than 1300 nM, less than 1300 nM, less than 2000 nM and less than 800 nM.
As to `Cc1cccc(C)c1CN(Cc1cccc(CN2OC(CO)C(C(C)O)C2C(=O)NC2CC3CC(C2C)C3(C)C)c1)C(CC(C)C)CN(C)C` (stereo not shown) [Compound 325], the “Bcl-XL binding affinity Ki” value in assay [1] is “♯”. The values for the IC50 in assay [2] (setting [5]), in assay [2] (setting [6]) and in assay [4] (Homo sapiens) were less than 1300 nM, less than 1300 nM and less than 2000 nM, respectively. This molecule registered a Ki in assay [3] of less than 800 nM.

The values are drawn from patent US7851637B2, “Compounds and methods for inhibiting the interaction of BCL proteins with binding partners” (Infinity Pharmaceuticals, Inc., priority 2004, dated 2010).
